According to US20020155172A1, “Methods and compounds for decreasing cell toxicity or death” (priority 2000, published 2002):

Assays:
[1] = test system: Q79-GFP aggregates; assay: Decrease of pre-formed Q79-GFP aggregates in vitro; format: biochemical
Protocol: Q79-GFP was expressed and purified from bacteria using standard molecular biology techniques. These fusion proteins form aggregates in vitro which can be viewed under an inverted fluorescence microscope. The Q79-GFP aggregates were administered Congo red (1 nM to 100 μM) and the ability of Congo red to decrease the aggregate was visually assessed.
This assay was also carried out on Q79-GFP aggregates that were administered compounds known to disrupt other types of aggregates, for example, beta-amyloid fibril aggregates. The Q79-GFP aggregates were administered Iota-carrageenan, dextran, minocycline, rolitetracycline, or Chrysamine G Congo red (100 μM each), and visually examined for the effect of each compound on disruption of the aggregate, as well as the density and size of the aggregates.

[2] = test system: wild type mice and R62 mice; assay: Tolerability of Congo red in mice; format: in vivo
Protocol: The latter procedure involved administration of 0.25 μl of the drug (1 mg/ml in 0.4% DMSO) per hour, for a period of at least 28 days. The treatment began at the latter part of the seventh week. When treatment began, although very little motor symptomology was observed, tremors were becoming apparent. Polyglutamine inclusions were readily detected at the beginning of treatment. The effect of Congo red on the polyglutamine-induced toxicity in muscle strength in the animal model R62 was quantified by the use of a rotorod.
In addition, the ability of Congo red to inhibit the formation as well as to disrupt preformed polyglutamine oligomers allowed us to examine the role of polyglutamine aggregates in neuronal dysfunction and degeneration characteristic of polyglutamine expansion diseases. In these studies, we used the animal model of Huntington's disease (R62), which expresses the truncated form of huntingtin with 139 CAG repeats Mangiarini et al. (supra). We took advantage of our finding that in addition to inhibiting polyglutamine oligomerization, Congo red also disrupts pre-formed oligomers, thus allowing assessment of the impact of Congo red on disease progression after formation of polyglutamine aggregates and the onset of symptoms. R62 transgenic mice and CBAxC57B1/6 F1 wild type littermates were obtained from Jackson Laboratories (Bar Harbor, Me.) at the age of five weeks. […]

[3] = test system: GST-Q19, GST-Q62, and GST-Q81; assay: Chemical absorption assay, polyglutamine repeat length; format: binding; conditions: 10 μg/ml Congo red in PBS; equal protein concentrations
Protocol: FIG. 6A is a graph of the percent of binding of Congo red to expanded polyglutamine repeats Q81, Q62, and Q19.
To determine if Congo red and its derivatives directly bind to expanded polyglutamine aggregates, we designed a chemical absorption assay. This assay measures the remaining Congo red in the supernatant after incubating the supernatant with GST-tagged polyglutamine beads, and removing the GST-polyglutamine beads by centrifugation. This assay was carried out as follows. Recombinant protein GST-Q19, GST-Q62, and GST-Q81 (containing 19, 62, and 81 polyglutamines, respectively) was purified from E. coli by glutathione beads. After several washes with PBS containing protease inhibitors, the beads were allowed to settle to the bottom of the tube at 24° C. for 10 minutes. The polyglutamine-bound beads were aliquoted and diluted with two volumes of 10 μg/ml of Congo red in PBS. The beads were mixed and centrifuged at 15,000 rpm for 2 minutes and the supernatant was removed and diluted 1:100. The percentage absorbance of the compound remaining in the supernatant after absorption with the GST-polyQ beads was then detected. In addition, Congo red- or PBS-only treated polyglutamine polypeptide bead pellets were washed three times with 100 volumes of PBS and then the protein was separated by 12% polyacrylamide gels and immunoblotted as mentioned above. […]

[4] = test system: HeLa cells co-transfected with a luciferase construct together with Q79-GFP; assay: Protein synthesis by luciferase activity in Q79 expressing HeLa cells; format: cell-based; conditions: 48 hours after transfection

Nc1c(/N=N/c2ccc(-c3ccc(/N=N/c4cc(S(=O)(=O)O)c5ccccc5c4N)cc3)cc2)cc(S(=O)(=O)O)c2ccccc12 [Congo red, diphenyldiazo-bis-alpha-napthylaminesulfonate]
decrease of pre-formed polyglutamine aggregates ([1]; 1 nM to 100 μM, visually assessed): decreased the pre-formed polyglutamine aggregates
dissolution or disruption of pre-formed expanded polyglutamine repeat aggregates ([1]; 100 μM each, visually examined): dissolution or disruption of pre-formed expanded polyglutamine repeat aggregates were detected
gross morphological abnormalities or symptoms ([2]; IP or ICV infusion, normal wild type mice or pre- or post-symptomatic R62 mice): no gross morphological abnormalities or induction of any obvious symptoms
drug toxicity ([2]; intraperitoneal injection up to 13 mg/kg every 48 hours for two weeks): no obvious drug toxicity
affinity for polyglutamine repeats Q81 or Q62 compared to Q19 [3]: significantly higher affinity for expanded polyglutamine repeats that were 81 or 62 polyglutamines in length
loss of luciferase activity (protein synthesis) [4]: prevented the loss of luciferase activity
